Assay results reported in ChEMBL document CHEMBL3046385, “Synthesis and bioactivity of novel 3-(1-hydroxyethylidene)-5-substituted-pyrrolidine-2,4-dione derivatives” (Chin Chem Lett, 2012).
≈ marks a conversion by molar mass, not a printed value.

Assays:
[1] = tested on: Echinochloa crus-galli; assay: Herbicidal activity against Echinochloa crus-galli (barnyard grass) assessed as root inhibition at 100 mg/l; assay type: functional
[2] = tested on: Echinochloa crus-galli; assay: Herbicidal activity against Echinochloa crus-galli (barnyard grass) assessed as stalk inhibition at 100 mg/l; assay type: functional
[3] = tested on: Brassica rapa subsp. oleifera; assay: Herbicidal activity against Brassica rapa subsp. oleifera assessed as root inhibition at 100 mg/l; assay type: functional
[4] = tested on: Brassica rapa subsp. oleifera; assay: Herbicidal activity against Brassica rapa subsp. oleifera assessed as root inhibition; assay type: functional, organism-based
[5] = tested on: Echinochloa crus-galli; assay: Herbicidal activity against Echinochloa crus-galli (barnyard grass) assessed as stalk inhibition; assay type: functional, organism-based

Row | Structure (SMILES) | inhibition at 100 µg/mL [1] [%] | inhibition at 100 µg/mL [2] [%] | inhibition at 100 µg/mL [3] [%] | EC50 [4] [µg/mL] | EC50 [5] [µg/mL]
1 | COc1ccc(CC2NC(=O)/C(=C(/C)O)C2=O)cc1 (centres undefined) | 32.8 | 41.2 | 62.9 | – | –
2 | C/C(O)=C1/C(=O)NC(CC(=O)c2ccccc2)C1=O (centres undefined) | 47.9 | 36.4 | 66.9 | – | –
3 | C/C(O)=C1/C(=O)NC(Cc2ccccc2Cl)C1=O (centres undefined) | 37.3 | 35.7 | 41.8 | – | –
4 | C/C(O)=C1/C(=O)NC(Cc2ccc(Cl)cc2)C1=O (centres undefined) | 49.6 | 37.8 | 89.7 | 25.5 (≈ 96 µM) | –
5 | CCCCC1NC(=O)/C(=C(/C)O)C1=O (centres undefined) | 38.5 | 32.3 | 46.3 | – | –
6 | CCCCCCC1NC(=O)/C(=C(/C)O)C1=O (centres undefined) | 47.8 | 66.9 | 43.1 | – | 72.7 (≈ 323 µM)
7 | C/C(O)=C1/C(=O)NC(C/C=C/c2ccccc2)C1=O (centres undefined) | 54 | 42.5 | 90.4 | 39.2 (≈ 152 µM) | –
8 | C/C(O)=C1/C(=O)NC(Cc2ccc(Cl)cc2Cl)C1=O (centres undefined) | 31.6 | 19.1 | 59.3 | – | –
9 | COc1ccc(C(=O)CC2NC(=O)/C(=C(/C)O)C2=O)cc1 (centres undefined) | 61.5 | 62.6 | 45.9 | – | 94.4 (≈ 326 µM)
10 | C/C(O)=C1/C(=O)NC(Cc2ccc([N+](=O)[O-])cc2)C1=O (centres undefined) | 64.3 | 41.6 | 45.7 | – | –
